One compound from US20260091082A1, “CYCLIC PEPTIDE DERIVATIVE COMPOSITION FOR TREATING OR PREVENTING EYE DISEASE” (DKS Co. Ltd., priority 2022, published 2026) can be followed below.

A short description of data set [1]: General condition observation (clinical signs) in anterior chamber aqueous humor pressure load rat model. It counts as in vivo, Rat; Slc: SD. Also noted: key: —: No anormal sign. The note with it: 10 mg/mL intravenous, once about 30 minutes before ischemic load, animals 401-410 (test group 4), per animal. On the procedure: (§1) • Species and strains: Rat; Slc: SD • Number of animals on arrival and sex: 50 males • Age in weeks at arrival: 6 weeks old • Body weight range at arrival: 147.2 to 170.0 g • Source: Japan SLC, Inc.
The body weight of the animals was measured at a frequency of once a week or more, and the general condition observation was performed every day.
(§2) • Administration route: Eyedrop administration, intravenous administration • Administration method (eyedrop): Eyedrop administration was performed on a treated eye (right eye) of a rat using a micropipette 4 times a day (at intervals of 1.5 hours or more). • Administration method (intravenous): The amount of administration solution, calculated from the body weight on the day of administration, was administered from the tail vein using a syringe and an injection needle about 30 minutes before ischemic load. • Time of administration: Administration was performed according to the following schedule.

Data set [2] relates to anterior chamber aqueous humor pressure load rat model. Put plainly: Retinal thickness (IPL, INL, ONL) in retinal damage model induced by anterior chamber aqueous humor pressure load. It counts as in vivo, Rat; Slc: SD. The note with it: 10 mg/mL intravenous, right eye. On the procedure:
• Name: Compound 9 • Source: Synthesized in the above Examples • Used amount: 0.4 mL (50 mg/mL solution) • Storage conditions: Freezing, light shielding
Method for preparing test substance (1 mg/mL): A high concentration solution prepared at 50 mg/mL was diluted 50 times with a medium to prepare a 1 mg/mL administration solution.
• Name: MK-801 • Distributor: SIGMA-ALDRICH • Use amount: 0.0501 g • Storage condition: refrigerated (2° C. to 8° C.)
Method for preparing positive control substance (10 mg/mL): 0.0501 g was weighed out and made up to a total volume of 5 mL with a control substance (physiological saline).
as §1
Grouping was performed two days before the first creation of the retinal damage model induced by an anterior chamber aqueous humor pressure load. Using the daily body weight as an index, stratified random allocation was performed using SAS (Ver. 9.3, SAS Institute Japan Ltd.) and EXSUS (Ver. 8.0, CAC Croit Corporation) so that an average value of the body weights of each group was approximately uniform.
as §2
1. 10 mg/kg xylazine hydrochloride was intramuscularly administered on the model creation day (day 0). A rat was placed in an anesthesia box and subjected to general anesthesia with isoflurane (5%, oxygen:nitrous oxide=1:3). When anesthesia was effective, the rat was taken out of the anesthesia box, an inhalation anesthetic mask was worn, and anesthesia was maintained with isoflurane (1% to 5%, oxygen nitrous oxide=1:3).
2. The body temperature was maintained at 37° C. with a warming mat, and a mydrin P ophthalmic solution was instilled in the right eye (treated eye) of the rat to dilate the pupil, then the cravit ophthalmic solution 1.5% (Santen Pharmaceutical Co., Ltd.) was instilled.
3. A bottle of an IV bag containing physiological saline was previously suspended so that a water surface was 155 cm (100 mmHg or more) higher than the eye of the rat. The IV bag was connected to a pediatric infusion set (Terumo Corporation), a 27 G injection needle thereof was inserted into and fixed to the anterior chamber while slightly dripping the liquid from a needle tip. The model was created in the light phase (6:00 to 18:00) in consideration of the diurnal variation of the intraocular pressure.
4. After the needle was inserted into the anterior chamber, pressure (100 mmHg or more) was loaded and maintained in the anterior chamber by associating the reflux system.
5. After an ischemic load for 45 minutes, the injection needle and the like were removed, the inhalation anesthetic mask was removed, and the rat was sufficiently woken up under a warming mat, and then returned to the cage.
6. For 2 days after surgery, 10 mg/kg xylazine hydrochloride was intramuscularly administered as an analgesic for the purpose of alleviating the pain after the treatment.
1. Fourteen days after model creation, general anesthesia was performed with isoflurane (5%, oxygen:nitrous oxide=1:3), euthanasia was then performed by exsanguination, a suture was placed as a marker at the 12 o'clock position of the ocular conjunctiva, and eyeball enucleation was performed.
2. […]

The mark [3] stands for this setting: 300 μm from optic disk, individual measurements per animal.
Setting [4] is: 300 μm from optic disk, mean per animal.

Each structure is given as a SMILES string. Where “and” joins values, the source holds several entries; their conditions need not be identical. Identical values can stand only once.

Regarding `C[C@]12N[C@H](Cc3ccccc31)c1ccccc12` [MK-801, reference compound], the Clinical signs result in data set [1] (Day 0), in data set [1] (Day 1), in data set [1] (Day 2), in data set [1] (Day 3), in data set [1] (Day 4) and in data set [1] (Day 5) was “—” in each case. The Clinical signs result in data set [1] (Day 6), in data set [1] (Day 7), in data set [1] (Day 8), in data set [1] (Day 9), in data set [1] (Day 10) and in data set [1] (Day 11) was “—” in each case. Besides, the Clinical signs entry in data set [1] (Day 12), in data set [1] (Day 13), in data set [1] (Day 14 (day of necropsy)), in data set [1] (Day −1) and in data set [1] (Day −2) was “—” in each case. In data set [2] (setting [3]), the “Thickness of INL (μm), Distance from Optic Disk 300 μm” value is 43.354 μm and 38.856 μm and 38.516 μm and 27.422 μm (2×) and 28.629 μm and 30.645 μm and 26.920 μm and 25.120 μm and 24.650 μm and 35.504 μm and 33.881 μm and 32.856 μm and 27.965 μm and 24.925 μm and 25.788 μm and 20.485 μm and 25.262 μm and 25.607 μm and 23.821 μm and 27.016 μm and 25.835 μm and 27.670 μm and 26.395 μm and 24.758 μm and 25.159 μm and 24.873 μm and 35.703 μm and 32.278 μm and 31.627 μm. Moreover, in data set [2] (setting [3]), the “Thickness of IPL (μm), Distance from Optic Disk 300 μm” value was 47.608 μm and 50.434 μm and 48.521 μm and 38.326 μm and 39.132 μm and 40.728 μm and 36.614 μm and 38.136 μm and 36.780 μm and 37.923 μm and 37.097 μm and 36.446 μm and 38.879 μm and 37.066 μm and 37.189 μm and 34.034 μm and 34.084 μm and 33.182 μm and 34.736 μm and 31.462 μm and 32.671 μm and 35.348 μm and 37.744 μm and 37.108 μm and 43.612 μm and 37.515 μm and 38.865 μm and 37.237 μm and 35.429 μm and 37.489 μm. The “Thickness of INL (μm), Distance from Optic Disk 300 μm, Mean” value in data set [2] (setting [4]) is 40.242 μm and 28.899 μm and 25.563 μm and 34.080 μm and 26.226 μm and 23.785 μm and 25.557 μm and 27.162 μm and 24.930 μm and 33.203 μm. In data set [2] (setting [4]), the “Thickness of IPL (μm), Distance from Optic Disk 300 μm, Mean” value was 48.854 μm and 39.395 μm and 37.177 μm and 37.155 μm and 37.711 μm and 33.767 μm and 32.956 μm and 36.733 μm and 39.997 μm and 36.718 μm. In addition, the “Thickness of INL (μm), Distance from Optic Disk 600 μm” value in data set [2] (600 μm from optic disk, individual measurements per animal) was 38.743 μm and 36.612 μm and 29.504 μm and 25.885 μm and 27.808 μm and 31.247 μm and 41.632 μm and 47.024 μm and 32.661 μm and 30.741 μm and 27.960 μm and 28.852 μm and 19.795 μm and 16.209 μm and 32.381 μm and 32.162 μm and 24.755 μm and 25.923 μm (2×) and 32.268 μm and 39.011 μm and 36.780 μm and 28.629 μm and 32.351 μm and 44.795 μm and 30.775 μm and 27.268 μm and 20.418 μm and 31.364 μm and 35.532 μm.
